Measurements reported in a melting point compilation (Tetko et al.; mined from patent text by program, amines drawn as free bases though some values may be those of a salt).

| Structure (SMILES) | melting point [°C] |
| --- | --- |
| COC(=O)c1ccc2c(c1)C(CNC(=O)OC(C)(C)C)CCC2 (configuration not stated) | 72 to 80 |
| COC(=O)N=P(c1ccccc1)(c1ccccc1)c1ccccc1CN(C)C | 95 to 97 |
| Cc1cc(C(O)(C(F)(F)F)C(F)(F)F)cc(C)c1NCC(N)=O | 205 to 207 |
| O=C1CC[C@H](CC(c2ccc(S(=O)(=O)C3CC3)cc2)c2nc(F)c(C(=O)C3CCC3)[nH]2)C1 (some centres not stated) | 85 to 88 |
| N#Cc1cnn(-c2ccccn2)c1N | 197 to 200 |
| COc1cc(C=O)ccc1OCCCCCCO | 55 to 56 |
| CC(=O)O[C@H]1C[C@@H](n2ncc(Cl)c(Cl)c2=O)[C@H](O)[C@@H]1O (racemic) | 119 to 122 |
| COc1ccc2cc(-c3noc(C)n3)c(=O)oc2c1 | 218 to 220 |
| COc1cc(OC)c(-c2ccc(C(=O)O)s2)cc1/C=C/C(=O)c1ccc(C(=O)O)cc1 | > 260 |
| COc1cc(Cl)cc(Cn2c(=O)cc(C(F)(F)F)n(C)c2=O)c1Cl | 117 to 123 |
| NC(=S)N1CCC(c2cccc(C(F)(F)F)c2)=N1 | 159 to 161 |
| O=c1[nH]c(COCC(F)(F)F)nc2nccnc12 | 165 to 167 |
| CCS(=O)(=O)c1cccnc1S(N)(=O)=O | 211 to 212 |
| O=C(/C=C/c1ccc(NS(=O)(=O)c2ccc(-c3ccccc3)cc2)cc1)NO | 190 to 192 |
| COc1ccccc1-c1cccc(C(c2ccccc2)c2ccccc2)c1O | 131 |
| Cc1cc(-c2c(-c3ccccc3)nc3ccc(N4CCC5(CCCNC5)CC4)nn23)ccn1 | 175 to 179 |
| Cc1nnc(F)c(-c2c(F)cc(F)cc2F)c1-c1ccc2ccccc2c1 | 108 to 110 |
| NS(=O)(=O)c1cc(C(=O)c2csc3ccccc23)ccc1Cl | 154 to 156 |
| O=C1N=C(N2CCOCC2)SC1=Cc1ccc(OC(F)(F)F)c(-c2cc(F)c(O)c(C34CC5CC(CC(C5)C3)C4)c2)c1 | 238 |
| CCCn1c(=O)n2c(-c3ccccc3)nnc2c2[nH]cnc21 | 273 to 280 |
| CC(=Cc1ccc(-n2ccnc2)cc1)[N+](=O)[O-] | 119 to 120 |
| CCCCCCCCOc1ccc2c(c1CCC)OC(CCC(=O)O)(CCC(=O)O)CC2=O | 148 |
| CN(CC1COc2ccccc2O1)S(N)(=O)=O (configuration not stated) | 97 to 98 |
| O=C(NCN1CCN(c2ccccc2Cl)CC1)c1ccccc1 | 145 to 147 |
| Cc1nc(Cl)sc1C=O | 77 to 78 |
| CC(=O)N1CCCC2=C1CCc1cc(Cl)c(Cl)cc12 | 146 to 148 |

| Structure (SMILES) | melting point [°C] |
| --- | --- |
| CCC(=O)N[C@@H](C)C(=O)N1CCC[C@H]1C(=O)NC1CCCCCCC1 | 142 to 143 |
| CN(C)Cc1ccc(COCC(N)=O)s1 | 86.5 to 95 |
| CCOC(=O)c1ncn2c1CN(C)C(=O)c1cc(C(F)(F)F)ccc1-2 | 179 to 180 |
| Fc1ccc(-c2nc3ccccc3n3cncc23)cc1 | 214 to 215 |
| COc1cccc2c(CN3CC=C(/C=C/c4ccccc4)CC3)coc12 | 152 to 153 |
| O=C(Nc1ccc(-n2nc(C3CC3)cc2C2CC2)c(F)c1)c1cccc(F)c1F | 132 to 135 |
| OC(CCC1CCNCC1)c1cc(-c2ccccc2)nc2ccccc12 (configuration not stated) | 162 |
| COC(=O)CCC(=NOCc1ccc(OCc2nc(-c3ccccc3)oc2C)c(OC)c1)c1ccccc1 | 112 to 114 |
| Cc1ccc(O)c2c1C(C(=O)N(Cc1ccc(N(C)C)cc1)c1ccc(C(C)C)cc1)CCC2 (configuration not stated) | 190 |
| CC1(C)CCCNc2ccc([N+](=O)[O-])cc21 | 99 |
| CC(C)c1cc2c(cc1CCSCC(=O)O)OCO2 | 75.5 to 76 |
| CCCCCCCCCCCCCc1cc[nH]c1 | 32.5 to 33.5 |
| CS(=O)(=O)N(Cc1cccnc1)c1ccc(Oc2ccccc2)cc1 | 139 to 140 |
| CCOC(=O)c1c(CBr)n(C)c2cc(Br)c(OC(C)=O)cc12 | 179 to 180 |
| CCCN(c1nc(-c2ccc(OC)cc2Cl)c(C)s1)c1cc(C(C)=O)ccc1OC | 50 |
| CC(O)c1cc(NC(=O)OC(C)(C)C)ccc1NC(=O)OC(C)(C)C (configuration not stated) | 189 |
| O=C(NCc1ccc2ccn(C3CCN(CCc4ccc(F)cc4)CC3)c2c1)C1CC1 | 116 to 117 |
| NS(=O)(=O)c1ccc(-c2noc(-c3cnc4ccc(-c5ccc(C(F)(F)F)cc5)cn34)n2)s1 | 280 |
| COc1ccc(C2Nc3ccccc3-c3c([N+](=O)[O-])cnn32)cc1 (configuration not stated) | 181 to 183 |
| COc1nc(OC)c(C(C)C)c(C(C#N)c2cc(Cl)cc(Cl)c2)n1 (configuration not stated) | 135 to 136 |
| COc1ccc(-c2cc(C(=O)Nc3cccc(F)n3)c3ccccc3n2)cc1 | 174 to 176 |
| OC1CSC(Oc2cccc(-c3ccccn3)c2)C(O)C1O (configuration not stated) | 138 to 139 |
| Cc1ccccc1-c1nn(C(C)(C)C(=O)N(C)C)cc1Cl | 134 to 136 |
| CCNC(=O)c1c([Si](C)(C)C)sc2c1CCCC2 | 107 to 112 |
| O=C(O)C(=O)c1c(Cl)cc(OCCOc2ccc3ccccc3c2)cc1Cl | 155 to 156 |
| O=C(NCCC[C@H]1OC[C@H](c2cccc3cc(OCC4CC4)ccc32)CO1)OCC(F)(F)F | 105 to 107 |

| Structure (SMILES) | melting point [°C] |
| --- | --- |
| CC(=O)NCCCC(=O)c1ccc(Cl)cc1CCC(=O)OCC(N)=O | 114 to 116 |
| Fc1cc2c(cc1F)CC(n1cc[nH]c1=S)CC2 (configuration not stated) | 206 to 207 |
| O=C(c1ccccc1)c1ccc(Cl)c(N=C=S)c1 | 96.7 |
| O=C(O)CS(=O)(=O)Nc1ccc(F)cc1C(F)(F)F | 120 to 121 |
| CCCNS(=O)(=O)c1cc(C(=O)CCC(=O)OC)ccc1Cl | 93 to 94 |
| Cc1c(C(=O)Nc2ccc(N3CCNCC3)c(C#N)c2)cnn1-c1ccc(Cl)cc1 | 184 |
| CC(C)c1cccc(C(C)C)c1NC(=O)NCC1(c2c(Cl)cccc2Cl)CCC1 | 174 to 177 |
| CCCCCCCCCCCCCCCOC(=O)c1cccnc1 | 35 |
| Cc1ccc(N=C=O)c(S(=O)(=O)Cl)c1 | 36 to 38.5 |
| NC(=S)N1CCN(c2nc3cccccc-3n2)CC1 | 245 to 247 |
| CCn1cc(C(=O)O)c(=O)c2cc(F)c(N3CCOC(CNC=O)C3)c(F)c21 (configuration not stated) | 234 to 236 |
| Clc1ccc(OCCN2CCN3CC=C(c4ccncc4)N=C32)cc1 | 211 to 213 |
| Cc1cc(C(F)F)c2c(n1)C(O)CCC2 (configuration not stated) | 101 to 104 |
| Oc1ccc2c(-c3nc4ccc(O)cc4o3)cccc2c1 | 273 to 275 |
| O=C(Nc1ccccc1S(=O)(=O)c1ccccc1)N[C@@H](Cc1ccc(OC(=O)c2c(Cl)cncc2Cl)cc1)C(=O)O | 186 |
| COC(=O)[C@H](CCCCNC(=O)OC(C)(C)C)NC(=O)c1ccccc1 | 108 to 109 |
| CC(=O)Nc1ccc(-c2ncc(NC(=O)OCc3ccccc3)c(=O)n2CC(=O)NC(Cc2ccccc2)C(=O)C(F)(F)F)cc1 (configuration not stated) | 235 to 240 |
| Cc1ccc(NCc2ccc(C(=O)Nc3ccccc3N)cc2)cc1Nc1nccc(-c2cccnc2)n1 | 112 to 120 |
| NC(=O)[C@H]1CCc2[nH]c3ccc(F)cc3c2C1 | 170 to 172 |
| COc1cc2c(CC(=O)O)c(C)n(C(=O)c3ccccc3)c2cc1F | 118 to 120 |
| CC1(C)CCCCc2ccc(C(=O)O)cc21 | 155 to 156 |
| CCOc1nn(Cc2ccc(Cl)cc2Cl)cc1CCCOc1cc(CCC(=O)O)n(-c2ccccc2)n1 | 132 to 133 |
| COC1CC(CNC(=O)Nc2ccc([N+](=O)[O-])cc2)C(OC)O1 (configuration not stated) | 172 to 174 |
| CCCC(=O)C(=O)[C@H](CC1CCCCC1)NC(=O)[C@H](Cc1cn(S(=O)(=O)c2ccc(C)cc2)cn1)NC(=O)OC(C)(OC)OC | 60 to 67 |
| CC(C)Cn1cc(C(=O)Nc2nccs2)c2ccc(Cl)cc21 | 200 to 202 |
| N#Cc1cccnc1NCc1nc2ccc(F)cc2c(=O)n1-c1ccccc1Cl | 145 to 150 |

| Structure (SMILES) | melting point [°C] |
| --- | --- |
| CC(C)(CO)NS(=O)(=O)c1ccc(Cl)c(N)c1 | 108 |
| O=CN1CCN(C(=O)CCBr)CC1 | 96 to 98 |
| COP(=O)(OC)C(O)=Cc1ccc2c(c1)C(=O)Cc1ccccc1O2 | 118 |
| C=C(OC(=O)c1ccc(C(C)(C)C)cc1)c1ccc(OC)cc1 | 87 to 89 |
| O=C(O)c1cc(F)cc(-c2cccc3cc(Cc4cc(F)cc(Cl)c4)sc23)c1 | 168 to 170 |
| CCS(=O)(=O)Nc1ccc(Cc2ccc(NC3=NCCN3)cc2)cc1 | 178 |
| COc1ccc2nc3c([N+](=O)[O-])ccc(Cl)c3c(Cl)c2c1 | 243 to 246 |
| N#Cc1cnn2c(C(F)(F)F)cc(-c3ccccn3)nc12 | 208 |
| CC(C)(C)OC(=O)NC(COCc1ccccc1)C(=O)N1CCOCC1 (configuration not stated) | 87 to 88 |
| c1n[nH]c2c1Cc1[nH]ncc1-2 | 180 |
| COc1ccc(CS[C@@H]2C[C@@H](CSCc3ccccc3)N(S(C)(=O)=O)C2)cc1 | 69 to 71 |
| CCC(CC)C(=O)OCOC(=O)C1=C(S[C@H]2CC[S@@](=O)C2)S[C@@H]2[C@@H]([C@@H](C)O)C(=O)N12 | 105 |
| CCCCCCOc1ccc(C=C(C#N)c2cccnc2)cc1 | 67 to 68 |
| COc1ccc(-c2cc3ncnc(Nc4ccc5[nH]ccc5c4)c3s2)cc1OC | 171 to 178 |
| CC(C(=O)O)c1ccc2c(c1)C(=O)Cc1ccccc1C2 (configuration not stated) | 134 to 136 |
| O=CNNc1ccc(NC(=S)N2CC=CC2)cc1 | 218 to 220 |
| COc1ccc2cc(-c3csc(-c4ccccc4)n3)ccc2c1 | 191 to 193 |
| O=[N+]([O-])c1ccc(OCC(F)(F)F)c(OCC(F)(F)F)c1 | 63 to 65 |
| COc1ccc(CN(C)CCOc2ccc(NC(=O)c3cccc4c(=O)c5ccccc5[nH]c34)cc2)cc1 | 146 |
| COC(=O)c1ccc2c(c1)SCCCC2NC(=O)OCc1ccccc1 (configuration not stated) | 132 to 134 |
| OCCON=Cc1cncc(-c2ccccc2)c1 | 102 to 104 |
| O=C(c1ccn2c1CSC2c1cccnc1)c1c[nH]c2cc(-c3ccc(F)cc3)ccc12 (configuration not stated) | 248 to 252 |
| CCOC(=O)/C(=N\OCC(=O)N(CC)CC)c1csc(N)n1 | 161 |
| NC(=S)N1CCCCc2cccnc21 | 121 |
